Assays:
grafted femurs = experiment: Mouse femoral allograft, micro-CT of grafted femurs (Example 4); assay type: in vivo, mice
Protocol: Four-mm long bone allografts were harvested from donor mice, and were processed and implanted into […] defects 195 in the femur of other mice and secured in place using a stainless steel intramedullary pin 190, as shown in FIG. 13. One week after surgery, daily injections of 40 μg/kg hrPTH (1-34) (Lilly, Inc., Indianapolis, Ind.) were initiated in half of the mice, while the others received injections of saline control. Weekly x-rays were taken to monitor progression (Faxitron X-Ray LLC, Wheeling, Ill.). One cohort of the study groups used 14 mice from each treatment (PTH and control) for imaging and mechanical material testing and were sacrificed 6 weeks after surgery. Each femur was harvested by disarticulating the hip and knee and removing the intramedullary stainless-steel pin. Specimens were moistened with saline and frozen at -20° C. until thawed for micro-CT imaging and torsion testing. Specimens were scanned at […] isotropic resolution using the Scanco VivaCT 40 (Scanco Medical AG, Bassersdorf, Switzerland). From these 3D images, the graft and callus bone volumes (BVGraft, BVCallus) were measured by manual segmentation, followed by standardized thresholding at a grayscale corresponding to 750 mgHA/cm^3. The cross-sectional polar moment of […]) were computed for each slice throughout the grafted region and the maximum, minimum and average […]) were investigated to determine their contribution to the biomechanics of the grafted femurs. The Union Ratio was also calculated. The Union Ratio measures the graft surface area upon which mineralized callus has formed. If the voxels adjacent to the graft surface are boney callus, the area of that region of the graft is measured and normalized to the total graft surface area. Imaging data (not shown) indicated the bare surface of the graft in blue, with regions of union to the callus depicted as red. Each half (proximal and distal) of the graft was evaluated separately and the lesser ratio of union area to total graft surface area was given as the Union Ratio for that specimen. Callus formation that bridged from host-to-host over the graft was determined by evaluating serial axial cross sections from micro-CT images and given a binary result. These samples were then mechanically tested in torsion. Yield torque (TYield), ultimate torque (TUlt), torsional rigidity (TR), toughness (or work to failure) and the twist at ultimate torque were determined for each specimen. Finally, the mode of failure for each specimen was determined using an x-ray image analysis (not shown). Bone volume quantification was performed from micro-CT imaging. Quantification of micro-CT results for a control and PTH treated (FIGS. 16E-H) specimen was performed. Cross sectional polar moment of inertia, graft were determined. Callus and intramedullary callus bone volumes were quantified for each specimen in a region of interest that extended from the proximal axial slice containing bone graft through the distal slice. These regions were manually segmented and quantified for bone volume, bone mineral density and bone mineral content at a threshold corresponding to 750 mgHA/cm^3. The total depth of penetration of callus into the intramedullary cavity from both ends was also measured. The trabecular-like region within the shell of the exterior callus was segmented for trabecular analysis to quantify BVF, Tb.No., Tb.Th., and Tb.Sp.

[1] = test system: callus vasculature of grafted femurs; experiment: Callus vascularization by micro-CT after vascular perfusion (Example 4); assay type: in vivo, mice; details: for vessel volume within callus, more in saline treated than PTH treated specimens: not significant, n=4 per group
Protocol: A second cohort of 16 animals underwent the same surgery with sacrifice of 8 animals at 4 weeks and 8 animals at 6 weeks post-surgery to evaluate the degree of vascularization of the graft and callus region using vascular profusion as described previously (Duvall 2004). Half of the animals were treated with PTH, and the other half with saline.
On the day of sacrifice, animals were injected with a fatal dose of ketamine and xylazine and their vasculature was perfused using a syringe pump through a needle placed into the left ventricle of the heart. The right atrium was also punctured to allow the blood to drain out. They were first perfused with heparinized (100 units/ml) saline to prevent blood clotting, followed by 10% neutral-buffered formalin, and lastly with lead-chromate contrast agent (Microfil 122, Flow Tech, Inc. Carver, Mass.). Samples were fixed in 10% formalin overnight followed by harvest of the femur and pin extraction. Samples were micro-CT scanned once after fixation, and again after EDTA decalcification. Using both scans the vasculature was evaluated within the mineralized callus. The vessel volume, thickness, spacing and vessel number was determined.

[2] = 40 μg/kg hrPTH (1-34) daily from week 1, 6 weeks after surgery, mean, n = 14
[3] = vs saline, 6 weeks after surgery

## CC[C@H](C)[C@H](NC(=O)[C@H](CCC(=O)O)NC(=O)[C@H](CO)NC(=O)[C@@H](NC(=O)[C@@H](N)CO)C(C)C)C(=O)N[C@@H](CCC(N)=O)C(=O)N[C@@H](CC(C)C)C(=O)N[C@@H](CCSC)C(=O)N[C@@H](Cc1cnc[nH]1)C(=O)N[C@@H](CC(N)=O)C(=O)N[C@@H](CC(C)C)C(=O)NCC(=O)N[C@@H](CCCCN)C(=O)N[C@@H](Cc1cnc[nH]1)C(=O)N[C@@H](CC(C)C)C(=O)N[C@@H](CC(N)=O)C(=O)N[C@@H](CO)C(=O)N[C@@H](CCSC)C(=O)N[C@@H](CCC(=O)O)C(=O)N[C@@H](CCCN=C(N)N)C(=O)N[C@H](C(=O)N[C@@H](CCC(=O)O)C(=O)N[C@@H](Cc1c[nH]c2ccccc12)C(=O)N[C@@H](CC(C)C)C(=O)N[C@@H](CCCN=C(N)N)C(=O)N[C@@H](CCCCN)C(=O)N[C@@H](CCCCN)C(=O)N[C@@H](CC(C)C)C(=O)N[C@@H](CCC(N)=O)C(=O)N[C@@H](CC(=O)O)C(=O)N[C@H](C(=O)N[C@@H](Cc1cnc[nH]1)C(=O)N[C@@H](CC(N)=O)C(=O)N[C@@H](Cc1ccccc1)C(=O)O)C(C)C)C(C)C [PTH, PTH (1-34)]
Grafted femurs; [2]
  BMCCallus: 2.7 mgHA
  BMDCallus: 667 mgHA/cc
  BVCallus: 1.04 mm^3/mm
  BVGraft: 0.82 mm^3/mm
  BVIntramed: 0.2 mm^3/mm
  Callus Tb. N.: 13.2
  Callus Tb. Sp.: 0.065
  Callus Tb. Th.: 0.149
  Callus trabecular BVF: 0.576
  Intramed Penetration Depth: 2.22 mm
  PMIAve: 1.16 mm^4
  PMIMax: 2.17 mm^4
  PMIMin: 0.51 mm^4
  Union Ratio: 0.277
Grafted femurs; 6 weeks
  ratio of callus BMCPTH:BMCSaline: 1.67
Grafted femurs; 6 weeks, saline 1.8±0.2 mm
  maximum outer radius of the callus: 1.7±0.3 mm
Grafted femurs; 6 weeks, saline 6 of 14
  specimens with bridging over the graft from host-to-host: 8 of 14
Grafted femurs; across all samples, vs saline
  Union Ratio greater in PTH treated animals: 2.8 fold
Grafted femurs; grafts from PTH-treated animals, saline 1.7±0.6 mm
  Intramedullary penetration depth: 2.2±0.7 mm
Grafted femurs; one specimen, saline control specimen 0.02
  Union Ratio of the single PTH-treated specimen of FIG. 15H: 0.31
Grafted femurs; vs saline, 6 weeks
  bone mineral density of the callus, less dense by: 14%
  bone volume fraction within the callus, greater by: 52%
  graft bone volume (graft resorption): not different between treatment groups
  net callus total mineral content, greater by: 67%
Grafted femurs; [3]
  increase in BVCallus: 93%
  increase in BVIntramed: 217%
  increase in PMIAve: 38%
  increase in PMIMax: 26%
Grafted femurs; vs saline, 6 weeks, p<0.01
  Union Ratio, greater by: 76%
Grafted femurs; vs saline, p=0.12
  Intramedullary penetration depth, greater by: 28%
[1]; 4 weeks
  vessel volume within callus, more in saline treated than PTH treated specimens: 74%
[1]; 4 weeks, p=0.05
  blood vessel diameter, greater in saline treated than PTH treated specimens: 55%
[1]; 6 weeks
  blood vessel diameter, greater in saline treated than PTH treated specimens: 78%
  vessel volume within callus, more in saline treated than PTH treated specimens: 88%
[1]; by 6 weeks, saline 3 of 4
  specimens in which the intramedullary blood vessel had bridged the length of the graft: 4 of 4

Source: patent US20090227503A1, “PARATHYROID HORMONE TREATMENT FOR ENHANCED ALLOGRAFT AND TISSUE-ENGINEERED RECONSTRUCTION OF BONE DEFECTS” (UNIVERSITY OF ROCHESTER, priority 2008, published 2009)
